Target: T1, purified human Hsp90
T1 construct: purified human Hsp90 (Stressgen, SPP-770)
Test: Hsp90 binding assay: displacement of BODIPY-labeled geldanamycin measured by fluorescence polarization
Settings: BODIPY-GM 10 nM, Hsp90 30 nM, overnight at room temperature; for IC50: read-out: GM displacement from purified Hsp90 measured by FP IC 50; for GM displacement from purified Hsp90 measured by FP Inhibition by 5 μM compd. (%): 5 μM compound
Protocol: Binding of the Example Compounds to purified Hsp90 was assayed by measuring the displacement of BODIPY-labeled geldanamycin (BODIPY-GM) from purified human Hsp90, using a fluorescence polarization assay adapted from Kim et al. (J. Biomolec. Screening, 9(5):375-381 (2004)). Compound dilutions (in 100% DMSO) were added to black-bottom 96-well plates (Greiner Bio-One, Monroe, N.C.) in 2% DMSO final, and equal volumes of BODIPY-GM (10 nM final) and purified human Hsp90 (Stressgen, SPP-770; 30 nM final) (Assay Designs, Ann Arbor, Mich.) in assay buffer (20 mM HEPES-KOH pH 7.3, 50 mM KCl, 5 mM MgCl2, 20 mM Na2MoO4, 0.01% NP-40, 0.1 mg/mL bovine gamma globulin [P2045; Invitrogen, Carlsbad, Calif.], 2 mM DTT) were added sequentially to yield a final volume of 50 microliters. Plates were incubated overnight at room temperature. Parallel and perpendicular fluorescence measurements were read (Analyst AD plate reader; LJL BioSystems, Middletown, Conn.) with excitation/emission wavelengths of 485/530 nm. Background fluorescence (buffer only) was subtracted, and fluorescence polarization (FP) values, expressed in mP units, were calculated from parallel and perpendicular fluorescence readings as follows:
FP=(parallel−perpendicular)/(parallel+perpendicular)*1000.
Percent inhibition was calculated by normalizing the FP values to those obtained in parallel reactions containing DMSO and subtracting these normalized values from 100%. Intrinsic compound fluorescence was independently monitored, and FP data points confounded by compound fluorescence were excluded from the analysis.

Row | Compound | IC50 [nM] | GM displacement from purified Hsp90 measured by FP Inhibition by 5 μM compd. (%)
1 | Nc1ncnc2c1nc(Sc1cc(O)c(O)cc1Br)n2CCC1CCN(C=O)CC1 [Example Compound 145, 4-(2-{6-Amino-8-[(2-bromo-4,5-dihydroxyphenyl)thio]-9H-purin-9-yl}ethyl)piperidine-1-carbaldehyde] | 600 | –
2 | Nc1ncn(CCC2CCN(C=O)CC2)c2nc(Sc3cc(O)c(O)cc3Br)nc1-2 [Example Compound 146, 4-(2-{6-amino-8-[(2-bromo-4,5-dihydroxyphenyl)thio]-3H-purin-3-yl}ethyl)piperidine-1-carbaldehyde] | – | 87.0
3 | Nc1ncnc2c1nc(Sc1cc3c(cc1Br)OCO3)n2CCC1CCNCC1 [Example Compound 147, 8-[(6-Bromo-1,3-benzodioxol-5-yl)thio]-9-(2-piperidin-4-ylethyl)-9H-purin-6-amine] | 470 | –
4 | Nc1ncnc2c1nc(Sc1cc3c(cc1Br)OCO3)n2CCC1CCN(S(N)(=O)=O)CC1 [Example Compound 148, 4-(2-{6-Amino-8-[(6-bromo-1,3-benzodioxol-5-yl)thio]-9H-purin-9-yl}ethyl)piperidine-1-sulfonamide] | 400 | –
5 | Nc1ncnc2c1nc(Sc1cc3c(cc1Br)OCO3)n2CCC1CCN(CCO)CC1 [Example Compound 149, 2-[4-(2-{6-Amino-8-[(6-bromo-1,3-benzodioxol-5-yl)thio]-9H-purin-9-yl}ethyl)piperidin-1-yl]ethanol] | 450 | –
6 | Nc1ncnc2c1nc(Sc1cc3c(cc1Br)OCO3)n2CCC1CCN(CCCO)CC1 [Example Compound 150, 3-[4-(2-{6-Amino-8-[(6-bromo-1,3-benzodioxol-5-yl)thio]-9H-purin-9-yl}ethyl)piperidin-1-yl]propan-1-ol] | 600 | –
7 | NC(=O)C[C@H](N)C(=O)N1CCC(CCn2c(Sc3cc4c(cc3Br)OCCO4)nc3c(N)ncnc32)CC1 [Example Compound 151, (3S)-3-Amino-4-[4-(2-{6-amino-8-[(7-bromo-2,3-dihydro-1,4-benzodioxin-6-yl)thio]-9H-purin-9-yl}ethyl)piperidin-1-yl]-4-oxobutanamide] | 57 | –
8 | NC(=O)C[C@H](N)C(=O)N1CCC(CCn2c(Sc3cc4c(cc3Br)OCO4)nc3c(N)ncnc32)CC1 [Example Compound 152, (3S)-3-Amino-4-[4-(2-{6-amino-8-[(6-bromo-1,3-benzodioxol-5-yl)thio]-9H-purin-9-yl}ethyl)piperidin-1-yl]-4-oxobutanamide] | 114 | –
9 | NC(=O)CCC(=O)N1CCC(CCn2c(Sc3cc4c(cc3Br)OCCO4)nc3c(N)ncnc32)CC1 [Example Compound 153, 4-[4-(2-{6-Amino-8-[(7-bromo-2,3-dihydro-1,4-benzodioxin-6-yl)thio]-9H-purin-9-yl}ethyl)piperidin-1-yl]-4-oxobutanamide] | 175 | –
10 | Nc1ncnc2c1nc(Sc1cc3c(cc1Br)OCCO3)n2CCC1CCN(C2=NC(=O)CC2)CC1 [Example Compound 154, 5-[4-(2-{6-amino-8-[(7-bromo-2,3-dihydro-1,4-benzodioxin-6-yl)thio]-9H-purin-9-yl}ethyl)piperidin-1-yl]-3,4-dihydro-2H-pyrrol-2-one] | 105 | –
11 | NC(=O)CCC(=O)N1CCC(CCn2c(Sc3cc4c(cc3Br)OCO4)nc3c(N)ncnc32)CC1 [Example Compound 155, 4-[4-(2-{6-Amino-8-[(6-bromo-1,3-benzodioxol-5-yl)thio]-9H-purin-9-yl}ethyl)piperidin-1-yl]-4-oxobutanamide] | 300 | –
12 | Nc1ncnc2c1nc(Sc1cc3c(cc1Br)OCO3)n2CCC1CCN(C2=NC(=O)CC2)CC1 [Example Compound 156, 5-[4-(2-{6-amino-8-[(6-bromo-1,3-benzodioxol-5-yl)thio]-9H-purin-9-yl}ethyl)piperidin-1-yl]-3,4-dihydro-2H-pyrrol-2-one] | 160 | –
13 | CS(=O)(=O)NCC(=O)N1CCC(CCn2c(Sc3cc4c(cc3Br)OCCO4)nc3c(N)ncnc32)CC1 [Example Compound 157, N-{2-[4-(2-{6-Amino-8-[(7-bromo-2,3-dihydro-1,4-benzodioxin-6-yl)thio]-9H-purin-9-yl}ethyl)piperidin-1-yl]-2-oxoethyl}methanesulfonamide] | 195 | –
14 | CS(=O)(=O)NCC(=O)N1CCC(CCn2c(Sc3cc4c(cc3Br)OCO4)nc3c(N)ncnc32)CC1 [Example Compound 158, N-{2-[4-(2-{6-Amino-8-[(6-bromo-1,3-benzodioxol-5-yl)thio]-9H-purin-9-yl}ethyl)piperidin-1-yl]-2-oxoethyl}methanesulfonamide] | 360 | –
15 | CC(=O)NCC(=O)N1CCC(CCn2c(Sc3cc4c(cc3Br)OCCO4)nc3c(N)ncnc32)CC1 [Example Compound 159, N-{2-[4-(2-{6-Amino-8-[(7-bromo-2,3-dihydro-1,4-benzodioxin-6-yl)thio]-9H-purin-9-yl}ethyl)piperidin-1-yl]-2-oxoethyl}acetamide] | 150 | –
16 | CC(=O)N[C@@H](C)C(=O)N1CCC(CCn2c(Sc3cc4c(cc3Br)OCCO4)nc3c(N)ncnc32)CC1 [Example Compound 160, N-{(1S)-2-[4-(2-{6-Amino-8-[(7-bromo-2,3-dihydro-1,4-benzodioxin-6-yl)thio]-9H-purin-9-yl}ethyl)piperidin-1-yl]-1-methyl-2-oxoethyl}acetamide] | 200 | –
17 | CC(=O)N[C@H](C)C(=O)N1CCC(CCn2c(Sc3cc4c(cc3Br)OCCO4)nc3c(N)ncnc32)CC1 [Example Compound 161, N-{(1R)-2-[4-(2-{6-Amino-8-[(7-bromo-2,3-dihydro-1,4-benzodioxin-6-yl)thio]-9H-purin-9-yl}ethyl)piperidin-1-yl]-1-methyl-2-oxoethyl}acetamide] | 140 | –
18 | Nc1ncnc2c1nc(Sc1cc3c(cc1Br)OCCO3)n2CCC1CCN(C(=O)CS)CC1 [Example Compound 162, 2-[4-(2-{6-Amino-8-[(7-bromo-2,3-dihydro-1,4-benzodioxin-6-yl)thio]-9H-purin-9-yl}ethyl)piperidin-1-yl]-2-oxoethanethiol] | 60 | –
19 | C[C@H](O)C(=O)N1CCC(CCn2c(Sc3cc4c(cc3Br)CCCC4)nc3c(N)ncnc32)CC1 [Example Compound 163, (2S)-1-[4-(2-{6-amino-8-[(3-bromo-5,6,7,8-tetrahydronaphthalen-2-yl)thio]-9H-purin-9-yl}ethyl)piperidin-1-yl]-1-oxopropan-2-ol] | 205 | –
20 | Cc1cc(Br)c(Sc2nc3c(N)ncnc3n2CCC2CCN(C(=O)[C@H](C)O)CC2)cc1C [Example Compound 165, (2S)-1-[4-(2-{6-amino-8-[(2-bromo-4,5-dimethylphenyl)thio]-9H-purin-9-yl}ethyl)piperidin-1-yl]-1-oxopropan-2-ol] | 240 | –
21 | Cc1cc(Br)c(Sc2nc3c(N)ncn(CCC4CCN(C(=O)[C@H](C)O)CC4)c-3n2)cc1C [Example Compound 166, (2S)-1-[4-(2-{6-amino-8-[(2-bromo-4,5-dimethylphenyl)thio]-3H-purin-3-yl}ethyl)piperidin-1-yl]-1-oxopropan-2-ol] | – | 75.0
22 | Nc1ncnc2c1nc(Sc1cc3c(cc1Br)CCO3)n2CCC1CCN(C=O)CC1 [Example Compound 167, 4-(2-{6-Amino-8-[(5-bromo-2,3-dihydro-1-benzofuran-6-yl)thio]-9H-purin-9-yl}ethyl)piperidine-1-carbaldehyde] | 42 | –
23 | Nc1ncnc2c1nc(Sc1cc3occc3cc1Br)n2CCC1CCN(C=O)CC1 [Example Compound 168, 4-(2-{6-Amino-8-[(5-bromo-1-benzofuran-6-yl)thio]-9H-purin-9-yl}ethyl)piperidine-1-carbaldehyde] | 95 | –
24 | CC(C)(C)OC(=O)N1CCC(CCn2c(Sc3cc4c(cc3C=O)OCO4)nc3c(N)ncnc32)CC1 [Example Compound 169, tert-Butyl 4-(2-{6-amino-8-[(6-formyl-1,3-benzodioxol-5-yl)thio]-9H-purin-9-yl}ethyl)piperidine-1-carboxylate] | 1900 | –
25 | COC(=O)c1cc2c(cc1Sc1nc3c(N)ncnc3n1CCC1CCN(C=O)CC1)OCO2 [Example Compound 170, Methyl 6-({6-amino-9-[2-(1-formylpiperidin-4-yl)ethyl]-9H-purin-8-yl}thio)-1,3-benzodioxole-5-carboxylate] | 41 | –
26 | CCOC(=O)c1cc2c(cc1Sc1nc3c(N)ncnc3n1CCC1CCN(C=O)CC1)OCO2 [Example Compound 171, ethyl 6-({6-amino-9-[2-(1-formylpiperidin-4-yl)ethyl]-9H-purin-8-yl}thio)-1,3-benzodioxole-5-carboxylate] | 68 | –
27 | CC(C)(C)OC(=O)N1CCC(CCn2c(Sc3cc4c(cc3Br)CCO4)nc3c(N)ncnc32)CC1 [Example Compound 172, tert-Butyl 4-(2-{6-amino-8-[(5-bromo-2,3-dihydro-1-benzofuran-6-yl)thio]-9H-purin-9-yl}ethyl)piperidine-1-carboxylate] | 300 | –

— patent publication US20100292255A1, “Therapeutic Compounds and Their Use in Treating Diseases and Disorders” (Myriad Pharmaceuticals, Inc., priority 2007, published 2010)
